From ChEMBL document CHEMBL2321785, “Synthesis and SAR study of new thiazole derivatives as vascular adhesion protein-1 (VAP-1) inhibitors for the treatment of diabetic macular edema” (Bioorg Med Chem, 2013)
Calls of active or inactive are those of the source. The calls are words filed in the database; no cut-off is given here.

Tests used:
[1] = molecular target: T1, Amine oxidase [copper-containing] 3 (Homo sapiens, UniProt Q16853); experiment: Inhibition of human VAP1 expressed in CHO cells using [14C]-benzylamine as substrate incubated for 30 mins prior to substrate addition measured after 1 hr by scintillation spectrophotometric analysis; format: cell-based
T1 sequence (Q16853 whole entry): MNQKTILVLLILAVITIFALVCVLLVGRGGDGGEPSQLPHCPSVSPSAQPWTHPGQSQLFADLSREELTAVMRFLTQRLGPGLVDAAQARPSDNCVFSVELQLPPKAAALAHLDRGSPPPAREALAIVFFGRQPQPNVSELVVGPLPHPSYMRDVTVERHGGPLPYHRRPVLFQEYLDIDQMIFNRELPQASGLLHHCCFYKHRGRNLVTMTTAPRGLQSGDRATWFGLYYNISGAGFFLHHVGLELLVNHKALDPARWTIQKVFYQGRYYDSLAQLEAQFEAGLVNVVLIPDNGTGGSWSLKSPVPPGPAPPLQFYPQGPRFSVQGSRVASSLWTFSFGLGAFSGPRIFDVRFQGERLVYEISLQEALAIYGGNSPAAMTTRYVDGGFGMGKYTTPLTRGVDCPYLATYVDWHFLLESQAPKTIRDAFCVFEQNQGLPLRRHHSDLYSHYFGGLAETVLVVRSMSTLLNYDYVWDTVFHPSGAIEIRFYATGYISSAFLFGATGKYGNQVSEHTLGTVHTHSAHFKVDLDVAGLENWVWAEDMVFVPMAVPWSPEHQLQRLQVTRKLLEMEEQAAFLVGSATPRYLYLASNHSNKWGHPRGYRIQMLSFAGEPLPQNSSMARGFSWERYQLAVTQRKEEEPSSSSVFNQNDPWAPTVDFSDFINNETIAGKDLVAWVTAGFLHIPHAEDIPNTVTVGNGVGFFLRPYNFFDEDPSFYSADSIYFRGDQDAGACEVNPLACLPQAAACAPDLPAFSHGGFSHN

Rattus norvegicus [2] = experiment: Inhibition of VAP1 in streptozotocin-induced Wistar rat diabetic model using [14C]-benzylamine as substrate assessed as [14C]-benzylaldehyde formation in plasma at >/= 0.1 mg/kg, sc after 1 hr by liquid scintillation counting analysis; format: functional, organism-based; set-up: dose 0.1 mg/kg
[3] = Selectivity ratio of IC50 for human VAP1 to IC50 for rat VAP1
Rattus norvegicus [4] = experiment: Inhibition of VAP1-mediated ocular permeability in streptozotocin-induced Sprague-Dawley rat diabetic model assessed as fluorescein leakage in vitreous at 1 to 10 mg/kg, sc administered daily for 4 weeks post streptozotocin challenge measured 24 hrs post last dose by fluorescence assay; format: functional, organism-based
Plasma [5] = experiment: Plasma concentration in sc dosed Wistar rat after 0.5 to 6 hrs by LC-MS analysis; format: ADME, organism-based; conditions: in vivo
Plasma [6] = experiment: Plasma concentration in Wistar rat at 0.1 mg/kg, sc after 0.5 to 6 hrs by LC-MS analysis; format: ADME, organism-based; set-up: dose 0.1 mg/kg, route subcutaneous; conditions: in vivo
[7] = molecular target: T2, Amine oxidase [copper-containing] 3 (Rattus norvegicus, UniProt O08590); experiment: Inhibition of rat VAP1 expressed in CHO cells using [14C]-benzylamine as substrate incubated for 30 mins prior to substrate addition measured after 1 hr by scintillation spectrophotometric analysis; format: cell-based
T2 sequence (O08590 whole entry): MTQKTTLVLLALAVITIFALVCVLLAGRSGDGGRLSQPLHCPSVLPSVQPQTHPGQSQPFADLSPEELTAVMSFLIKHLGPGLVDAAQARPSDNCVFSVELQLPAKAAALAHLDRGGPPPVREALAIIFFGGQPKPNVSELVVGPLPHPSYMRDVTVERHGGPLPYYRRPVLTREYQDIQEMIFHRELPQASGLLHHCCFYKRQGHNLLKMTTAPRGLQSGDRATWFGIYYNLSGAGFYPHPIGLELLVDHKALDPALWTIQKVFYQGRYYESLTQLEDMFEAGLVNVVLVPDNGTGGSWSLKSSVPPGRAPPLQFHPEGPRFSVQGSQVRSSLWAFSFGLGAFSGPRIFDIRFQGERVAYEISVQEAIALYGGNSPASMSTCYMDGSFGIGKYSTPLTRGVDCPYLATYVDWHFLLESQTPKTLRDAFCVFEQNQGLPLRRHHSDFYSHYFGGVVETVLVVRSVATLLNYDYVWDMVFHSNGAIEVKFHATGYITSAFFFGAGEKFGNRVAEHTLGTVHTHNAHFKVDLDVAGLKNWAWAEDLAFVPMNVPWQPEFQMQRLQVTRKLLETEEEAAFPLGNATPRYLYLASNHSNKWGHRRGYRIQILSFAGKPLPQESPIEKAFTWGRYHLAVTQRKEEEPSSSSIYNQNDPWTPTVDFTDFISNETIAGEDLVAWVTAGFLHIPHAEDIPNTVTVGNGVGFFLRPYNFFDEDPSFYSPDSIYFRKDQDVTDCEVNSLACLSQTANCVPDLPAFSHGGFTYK

Homo sapiens [8] = species: Homo sapiens; experiment: Selectivity ratio of IC50 for human DAO to IC50 for human VAP1
Homo sapiens [9] = species: Homo sapiens; experiment: Selectivity ratio of IC50 for human MAOB to IC50 for human VAP1
[10] = molecular target: T3, Amine oxidase [flavin-containing] B (Homo sapiens, UniProt P27338); experiment: Inhibition of human MAOB expressed in CHO cells using benzylamine as substrate after 1 hr by fluorometric assay; format: cell-based
T3 sequence (P27338 whole entry): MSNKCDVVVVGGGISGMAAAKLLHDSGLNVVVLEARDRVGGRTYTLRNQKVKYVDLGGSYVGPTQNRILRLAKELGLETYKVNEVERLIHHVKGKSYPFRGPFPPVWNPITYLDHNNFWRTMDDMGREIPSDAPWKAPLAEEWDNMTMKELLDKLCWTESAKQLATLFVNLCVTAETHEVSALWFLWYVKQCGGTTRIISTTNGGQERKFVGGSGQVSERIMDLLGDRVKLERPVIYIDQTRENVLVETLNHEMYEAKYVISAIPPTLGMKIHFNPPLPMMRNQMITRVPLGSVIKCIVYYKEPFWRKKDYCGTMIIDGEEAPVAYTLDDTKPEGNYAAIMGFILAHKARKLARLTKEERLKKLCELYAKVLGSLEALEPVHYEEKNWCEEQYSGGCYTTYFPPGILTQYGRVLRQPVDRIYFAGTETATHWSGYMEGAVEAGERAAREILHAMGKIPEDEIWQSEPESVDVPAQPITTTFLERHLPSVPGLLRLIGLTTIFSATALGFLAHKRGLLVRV

Row | Compound | IC50 [1] | other results
1 | CC(=O)Nc1nc(-c2ccc(CCNC(=N)N)cc2)cs1 | 0.33 µM | 
2 | N=C(N)Nc1ccc(CCc2csc(NC(=O)c3ccccc3)n2)cc1 | 11 µM | 
3 | N=C(N)Nc1ccc(CCc2csc(N)n2)cc1 | 22 µM | 
4 | CC(=O)Nc1nc(CCc2ccc(N)cc2)cs1 | > 100 µM | 
5 | CC(=O)Nc1nc(CCc2ccc(NC3=NCCS3)cc2)cs1 | 3.5 µM | 
6 | CC(=O)Nc1nc(CCc2ccc(NC3=NCCN3)cc2)cs1 | 3 µM | 
7 | CC(=O)Nc1nc(CCc2ccc(CCN)cc2)cs1 | 5 µM | 
8 | CC(=O)Nc1nc(CCc2ccc(N=C(N)NC(C)C)cc2)cs1 | 1.1 µM | 
9 | CC(=O)Nc1nc(CCCc2ccc(NC(=N)N)cc2)cs1 | 8.8 µM | 
10 | CC(=O)Nc1ccc(CCc2ccc(NC(=N)N)cc2)cc1 | 18 µM | 
11 | CC(C)C(=O)Nc1nc(CCc2ccc(NC(=N)N)cc2)cs1 | 0.52 µM | 
12 | CC(=O)Nc1ncc(CCc2ccc(NC(=N)N)cc2)s1 | 9.6 µM | 
13 | CC(=O)Nc1cccc(CCc2ccc(NC(=N)N)cc2)c1 | 15 µM | 
14 | CC(=O)Nc1nc(Cc2ccc(NC(=N)N)cc2)cs1 | 42 µM | 

The next lines start with results.

Row | IC50 [1] | Compound | other results
15 | 0.23 µM | CC(=O)Nc1nc(CCc2ccc(NC(=N)N)cc2)cs1 | inhibition (Rattus norvegicus [2]): Active; Ratio IC50 [3]: 16; inhibition (Rattus norvegicus [4]): Active; Cp (Plasma [5]): Dose-dependent effect; Cp (Plasma [6]): 21.8 ng/mL; IC50 [7]: 14 nM; Ratio IC50 (Homo sapiens [8]): > 435; Ratio IC50 (Homo sapiens [9]): > 435; IC50 [10]: > 100 µM
16 | 0.68 µM | CCNC(=N)Nc1ccc(CCc2csc(NC(C)=O)n2)cc1 | 
17 | 0.73 µM | CC(=O)Nc1nc(CCc2ccc(NC=N)cc2)cs1 | 
18 | 1.1 µM | CSC(=N)Nc1ccc(CCc2csc(NC(C)=O)n2)cc1 | 
19 | > 100 µM | CC(=O)Nc1nc(CCc2ccc(NC(=N)N(C)C)cc2)cs1 | 
20 | > 10 µM | CC(=O)Nc1nc(CCc2ccc(NC(N)=S)cc2)cs1 | 
